The values below come from BindingDB's records for doi:10.1021/jm701311r (Georgia Institute of Technology, 2008).

Usually pIC50 stands for the negative decadic logarithm of the IC50, by convention in mol/L. Low readings indicate a high IC50, high ones a low IC50.

pIC50: −log10 of the molar value. Where only a bound is given, the exact number is not on record here.

What all share (experiment): AE Enzyme Inhibition Assay
Assay [1] has as its target T1, Legumain (Schistosoma mansoni, UniProt Q9NFY9).
T1 sequence (Q9NFY9 whole entry): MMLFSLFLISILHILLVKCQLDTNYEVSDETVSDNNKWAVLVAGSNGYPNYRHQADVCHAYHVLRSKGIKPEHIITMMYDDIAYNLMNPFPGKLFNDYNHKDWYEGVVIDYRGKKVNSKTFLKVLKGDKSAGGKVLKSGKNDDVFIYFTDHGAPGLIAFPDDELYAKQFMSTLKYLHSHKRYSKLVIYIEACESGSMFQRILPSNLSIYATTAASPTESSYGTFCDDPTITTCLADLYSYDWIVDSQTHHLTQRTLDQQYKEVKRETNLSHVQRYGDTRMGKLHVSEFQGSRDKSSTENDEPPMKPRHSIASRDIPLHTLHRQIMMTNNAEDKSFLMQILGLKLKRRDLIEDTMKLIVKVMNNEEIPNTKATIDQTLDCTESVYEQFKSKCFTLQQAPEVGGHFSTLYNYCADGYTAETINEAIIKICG
As to the method:
(§1) AE activity in the induction medium was measured with the substrate Cbz-Ala-Ala-Asn-AMC. In a black 96-well microtiter plate, aza-peptidyl inhibitors were added to the reaction buffer containing the activated enzyme, and allowed to incubate at room temperature for 20 min. Then, substrate Cbz- Ala-Ala-Asn-AMC was added and the reaction allowed proceeding for 20 min. Plotting the relative fluorescence units (RFU)/min against the inhibitor concentration (uM) permitted calculation of the IC50 value.

The target of assay [2] is T2, Legumain (Ixodes ricinus, UniProt Q6PRC7).
T2 sequence (Q6PRC7 whole entry): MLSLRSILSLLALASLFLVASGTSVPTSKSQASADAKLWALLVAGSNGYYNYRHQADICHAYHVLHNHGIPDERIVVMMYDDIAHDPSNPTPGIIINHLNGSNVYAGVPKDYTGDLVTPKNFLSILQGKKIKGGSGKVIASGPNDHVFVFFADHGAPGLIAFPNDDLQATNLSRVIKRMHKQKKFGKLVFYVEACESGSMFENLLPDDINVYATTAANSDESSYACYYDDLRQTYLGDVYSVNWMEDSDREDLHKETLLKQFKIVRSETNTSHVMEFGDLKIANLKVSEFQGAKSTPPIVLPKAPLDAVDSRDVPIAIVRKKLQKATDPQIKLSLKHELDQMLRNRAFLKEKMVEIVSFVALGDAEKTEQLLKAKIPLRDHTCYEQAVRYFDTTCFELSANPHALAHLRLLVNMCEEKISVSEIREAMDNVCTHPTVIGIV
The note with it: 25 °C. As to the method:
as §1

Assay [3] concerns the target T3, Clan CD, family C13, asparaginyl endopeptidase-like cysteine peptidase (Trichomonas vaginalis (strain ATCC PRA-98 / G3), UniProt A2DYT2).
T3 sequence (A2DYT2 whole entry): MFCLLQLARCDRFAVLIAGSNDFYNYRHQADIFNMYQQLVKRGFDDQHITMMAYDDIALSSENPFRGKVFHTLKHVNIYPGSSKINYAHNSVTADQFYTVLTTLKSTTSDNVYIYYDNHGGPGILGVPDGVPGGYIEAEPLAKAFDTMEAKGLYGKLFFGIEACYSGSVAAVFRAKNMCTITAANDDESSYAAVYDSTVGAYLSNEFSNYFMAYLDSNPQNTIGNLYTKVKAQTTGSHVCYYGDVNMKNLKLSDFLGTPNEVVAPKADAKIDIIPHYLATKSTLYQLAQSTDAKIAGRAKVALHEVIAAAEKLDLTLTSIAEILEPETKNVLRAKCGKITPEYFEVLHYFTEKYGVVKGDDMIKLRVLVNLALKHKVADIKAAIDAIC
As to the method: as §1

With `C[C@H](NC(=O)OCc1ccccc1)C(=O)N[C@@H](C)C(=O)NN(CC(N)=O)C(=O)C=CC(=O)Nc1ccccc1` [benzyl N-[(1S)-1-{[(2S)-1-[(2E)-3-[N-(carbamoylmethyl)hydrazido]-N-phenylprop-2-enamide]-1-oxopropan-2-yl]carbamoyl}ethyl]carbamate], the pIC50 against Legumain [1] (pH 6.8, 22 °C) is 6.15; at Legumain [2] it was 8.00; in assay [3] (pH 6.8, 22 °C) it was 7.70.

Consider `C[C@H](NC(=O)OCc1ccccc1)C(=O)N[C@@H](C)C(=O)NN(CC(N)=O)C(=O)C=CC(=O)N(Cc1ccccc1)Cc1ccccc1` [benzyl N-[(1S)-1-{[(2S)-1-[(2E)-N,N-dibenzyl-3-[N-(carbamoylmethyl)hydrazido]prop-2-enamide]-1-oxopropan-2-yl]carbamoyl}ethyl]carbamate], for which the pIC50 is 7.35 at Legumain [1] (pH 6.8, 22 °C); 6.35 at Legumain [2]; 8.00 in assay [3] (25 °C).

As for `C[C@H](NC(=O)OCc1ccccc1)C(=O)N[C@@H](C)C(=O)NN(CC(N)=O)C(=O)C=Cc1cccnc1` [benzyl N-[(1S)-1-{[(2S)-1-[(2E)-N-(carbamoylmethyl)-3-(pyridin-3-yl)prop-2-enehydrazido]-1-oxopropan-2-yl]carbamoyl}ethyl]carbamate], the negative logarithm of the IC50 (pIC50) against Legumain [1] (pH 6.8, 22 °C) was under 5.70; at Legumain [2] it was 4.82; in assay [3] (25 °C), 5.10.

Turning to `C[C@H](NC(=O)OCc1ccccc1)C(=O)N[C@@H](C)C(=O)NN(CC(N)=O)C(=O)C=CC(=O)N1CCc2ccccc2C1` [benzyl N-[(1S)-1-{[(2S)-1-[(2E)-N-(carbamoylmethyl)-4-oxo-4-(1,2,3,4-tetrahydroisoquinolin-2-yl)but-2-enehydrazido]-1-oxopropan-2-yl]carbamoyl}ethyl]carbamate], the results for the negative-log IC50 (pIC50) (at Legumain [1] (25 °C); against Legumain [2]; in assay [3] (25 °C)) were 6.70, 7.60 and 8.00, respectively.

Consider `C[C@H](NC(=O)OCc1ccccc1)C(=O)N[C@@H](C)C(=O)NN(CC(N)=O)C(=O)C=CC(=O)N1CCCc2ccccc21` [benzyl N-[(1S)-1-{[(2S)-1-[(2E)-N-(carbamoylmethyl)-4-oxo-4-(1,2,3,4-tetrahydroquinolin-1-yl)but-2-enehydrazido]-1-oxopropan-2-yl]carbamoyl}ethyl]carbamate], for which the values for the negative logarithm of the IC50 (pIC50) (against Legumain [1] (25 °C); against Legumain [2]; in assay [3] (25 °C)) were 7.15, 8.40 and 8.46, respectively.

`C[C@H](NC(=O)OCc1ccccc1)C(=O)N[C@@H](C)C(=O)NN(CC(N)=O)C(=O)C=CC(=O)N1CC=C(c2ccccc2)CC1` [benzyl N-[(1S)-1-{[(2S)-1-[(2E)-N-(carbamoylmethyl)-4-oxo-4-(4-phenyl-1,2,3,6-tetrahydropyridin-1-yl)but-2-enehydrazido]-1-oxopropan-2-yl]carbamoyl}ethyl]carbamate]: the negative logarithm of the IC50 (pIC50) was 6.12 on Legumain [1] (25 °C), 7.07 against Legumain [2] and 8.00 in assay [3] (25 °C).

`C[C@H](NC(=O)OCc1ccccc1)C(=O)N[C@@H](C)C(=O)NN(CC(N)=O)C(=O)C=CC(=O)N(Cc1ccccc1)Cc1cccc2ccccc12` [benzyl N-[(1S)-1-{[(2S)-1-[(2E)-N-benzyl-3-[N-(carbamoylmethyl)hydrazido]-N-(naphthalen-1-ylmethyl)prop-2-enamide]-1-oxopropan-2-yl]carbamoyl}ethyl]carbamate]: the results for the pIC50 (against Legumain [1] (25 °C); against Legumain [2]; in assay [3] (25 °C)) were 7.21, 8.22 and over 9.00, respectively.

On to `C[C@H](NC(=O)OCc1ccccc1)C(=O)N[C@@H](C)C(=O)NN(CC(N)=O)C(=O)C=CC(=O)N(Cc1ccccc1)Cc1ccc2ccccc2c1` [benzyl N-[(1S)-1-{[(2S)-1-[(2E)-N-benzyl-3-[N-(carbamoylmethyl)hydrazido]-N-(naphthalen-2-ylmethyl)prop-2-enamide]-1-oxopropan-2-yl]carbamoyl}ethyl]carbamate], for which the pIC50 against Legumain [1] (25 °C) was 7.15; against Legumain [2], 8.10; in assay [3] (25 °C) it was 8.22.

On to `C[C@H](NC(=O)OCc1ccccc1)C(=O)N[C@@H](C)C(=O)NN(CC(N)=O)C(=O)C=CC(=O)N(Cc1ccccc1)Cc1ccc(F)cc1` [benzyl N-[(1S)-1-{[(2S)-1-[(2E)-N-benzyl-3-[N-(carbamoylmethyl)hydrazido]-N-[(4-fluorophenyl)methyl]prop-2-enamide]-1-oxopropan-2-yl]carbamoyl}ethyl]carbamate], for which the pIC50 against Legumain [1] (25 °C) is 7.22; against Legumain [2], 6.15; in assay [3] (25 °C), over 9.00.

In the case of `COc1ccc(CN(Cc2ccccc2)C(=O)C=CC(=O)N(CC(N)=O)NC(=O)[C@H](C)NC(=O)[C@H](C)NC(=O)OCc2ccccc2)cc1` [benzyl N-[(1S)-1-{[(2S)-1-[(2E)-N-benzyl-3-[N-(carbamoylmethyl)hydrazido]-N-[(4-methoxyphenyl)methyl]prop-2-enamide]-1-oxopropan-2-yl]carbamoyl}ethyl]carbamate], the negative logarithm of the IC50 (pIC50) was 7.05 against Legumain [1] (pH 6.8, 22 °C); 7.92 against Legumain [2]; 8.64 in assay [3] (25 °C).

For `C[C@H](NC(=O)OCc1ccccc1)C(=O)N[C@@H](C)C(=O)NN(CC(N)=O)C(=O)C=CC(=O)N(Cc1ccccc1)c1ccccc1` [benzyl N-[(1S)-1-{[(2S)-1-[(2E)-N-benzyl-3-[N-(carbamoylmethyl)hydrazido]-N-phenylprop-2-enamide]-1-oxopropan-2-yl]carbamoyl}ethyl]carbamate], the negative-log IC50 (pIC50) on Legumain [1] (pH 6.8, 22 °C) is 7.15; at Legumain [2] it was over 9.00; in assay [3] (25 °C), over 9.00.

With `C[C@H](NC(=O)OCc1ccccc1)C(=O)N[C@@H](C)C(=O)NN(CC(N)=O)C(=O)C=CC(=O)NCc1ccccc1` [benzyl N-[(1S)-1-{[(2S)-1-[(2E)-N-benzyl-3-[N-(carbamoylmethyl)hydrazido]prop-2-enamide]-1-oxopropan-2-yl]carbamoyl}ethyl]carbamate], the negative logarithm of the IC50 (pIC50) against Legumain [1] (pH 6.8, 22 °C) is 6.00; on Legumain [2], 6.70; in assay [3] (pH 6.8, 22 °C), 8.00.

As for `CCOC(=O)C=CC(=O)N(CC(N)=O)NC(=O)[C@H](C)NC(=O)[C@H](C)NC(=O)CCCC[C@@H]1SC[C@@H]2NC(=O)N[C@@H]21` [ethyl (2E)-4-[(2S)-2-[(2S)-2-{5-[(3aS,4S,6aR)-2-oxo-hexahydro-1H-thieno[3,4-d]imidazolidin-4-yl]pentanamido}propanamido]-N'-(carbamoylmethyl)propanehydrazido]-4-oxobut-2-enoate], the pIC50 is 8.00 on Legumain [1] (25 °C), 8.55 against Legumain [2] and over 8.00 in assay [3] (25 °C).
